Test results from patent publication US12428406B2 (PMV Pharmaceuticals, Inc., priority 2019, dated 2025).

target: T1, p53 Y220C (Homo sapiens, UniProt P04637, Y220C); assay: In vitro DNA binding activity assay (HTRF / TR-FRET): stabilization of p53 Y220C and increase of its DNA binding activity; assay type: biochemical; details: recombinant His-tagged p53 Y220C DNA binding domain (aa 94-312), biotin-labeled consensus DNA, incubated at 27° C. or 29° C. for 60 min
T1 construct: The recombinant protein was a truncation mutant containing only amino acids 94-312 of p53; made in house; host or cells: E. coli
T1 sequence (P04637 94-312, change not shown): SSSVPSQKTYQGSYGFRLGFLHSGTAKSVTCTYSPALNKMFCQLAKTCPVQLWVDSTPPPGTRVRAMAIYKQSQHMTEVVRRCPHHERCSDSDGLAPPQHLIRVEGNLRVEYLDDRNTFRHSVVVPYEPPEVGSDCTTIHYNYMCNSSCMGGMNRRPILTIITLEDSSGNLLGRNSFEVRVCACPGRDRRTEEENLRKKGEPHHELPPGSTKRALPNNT
Summary of the method: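 His-tagged p53 Y220C, E. coli-expressed, binding biotin-labeled consensus DNA measured by HTRF (anti-His-APC, streptavidin-europium). Compounds from 4.5 mM DMSO stocks, 3-fold serial dilutions; incubations at room temperature 15 min, then 20 min. SC150 = concentration raising DNA binding by 50%.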

SC150 (concentration of the compound required to increase the DNA binding activity by 50%), + (+ = 0 μM ≤ SC150 < 0.05 μM):
COc1cc(S(C)(=O)=O)ccc1NCC#Cc1cc2c(N[C@H]3CC[C@H](N4CCC5(CC4)COC5)CC3)cccc2n1CC(F)(F)F [Compound 313A, 2-{3-[(4-methane-sulfonyl-2-methoxy-phenyl)amino]prop-1-yn-1-yl}-N-[(1R,4R)-4-{2-oxa-7-azaspiro[3.5]nonan-7-yl}cyclohexyl]-1-(2,2,2-trifluoroethyl)-1H-indol-4-amine]
CCS(=O)(=O)c1ccc(NCC#Cc2cc3c(N[C@H]4CC[C@H](N5CC6(CCOCC6)C5)CC4)cccc3n2CC(F)(F)F)c(OC)c1 [Compound 314A, 2-(3-{[4-(ethanesulfonyl)-2-methoxyphenyl]amino}prop-1-yn-1-yl)-N-[(1R,4R)-4-{7-oxa-2-azaspiro[3.5]nonan-2-yl}cyclohexyl]-1-(2,2,2-trifluoroethyl)-1H-indol-4-amine]
CCS(=O)(=O)c1ccc(NCC#Cc2cc3c(N[C@H]4CC[C@@H](N5CC6(CCOCC6)C5)CC4)cccc3n2CC(F)(F)F)c(OC)c1 [Compound 315A, 2-(3-{[4-(ethanesulfonyl)-2-methoxyphenyl]amino}prop-1-yn-1-yl)-N-[(1S,4S)-4-{7-oxa-2-azaspiro[3.5]nonan-2-yl}cyclohexyl]-1-(2,2,2-trifluoroethyl)-1H-indol-4-amine]
NS(=O)(=O)c1ccc(NCC#Cc2cc3c(N[C@H]4CC[C@H](N5CC6(CCOCC6)C5)CC4)cccc3n2CC(F)(F)F)c(OCF)c1 [Compound 316A, 3-(fluoromethoxy)-4-{[3-(4-{[(1R,4R)-4-{7-oxa-2-azaspiro[3.5]nonan-2-yl}cyclo-hexyl]amino}-1-(2,2,2-trifluoroethyl)-1H-indol-2-yl)prop-2-yn-1-yl]amino}benzene-1-sulfonamide]
CNC(=O)c1ccc(NCC#Cc2cc3c(N[C@H]4CC[C@H](N5CC6(CCCOC6)C5)CC4)cccc3n2CC(F)(F)F)c(OC)c1 [Compound 318A, 3-methoxy-N-methyl-4-{[3-(4-{[(1R,4R)-4-{6-oxa-2-azaspiro[3.5]nonan-2-yl}cyclohexyl]amino}-1-(2,2,2-trifluoroethyl)-1H-indol-2-yl)prop-2-yn-1-yl]amino} benzamide]
COc1cc(S(N)(=O)=O)ccc1NCC#Cc1cc2c(N[C@H]3CC[C@H](N4CC5(CCCOC5)C4)CC3)cccc2n1CC(F)(F)F [Compound 320A, 3-methoxy-4-{[3-(4-{[(1R,4R)-4-{6-oxa-2-azaspiro[3.5]nonan-2-yl}cyclohexyl]amino}-1-(2,2,2-trifluoro-ethyl)-1H-indol-2-yl)prop-2-yn-1-yl]amino} benzene-1-sulfonamide]
COc1cc(S(C)(=O)=O)ccc1NCC#Cc1cc2c(N[C@H]3CC[C@H](N4CC5(CCCOC5)C4)CC3)cccc2n1CC(F)(F)F [Compound 322A, 2-{3-[(4-methane-sulfonyl-2-methoxy-phenyl)amino]prop-1-yn-1-yl}-N-[(1R,4R)-4-{6-oxa-2-azaspiro[3.5]nonan-2-yl}cyclohexyl]-1-(2,2,2-trifluoroethyl)-1H-indol-4-amine]
CS(=O)(=O)c1ccc(NCC#Cc2cc3c(N[C@H]4CC[C@H](N5CC6(CCOCC6)C5)CC4)cccc3n2CC(F)(F)F)c(OCF)c1 [Compound 324A, N-((1R,4R)-4-(7-oxa-2-azaspiro[3.5]nonan-2-yl)cyclohexyl)-2-(3-((2-(fluoromethoxy)-4-(methylsulfonyl)phenyl)amino)prop-1-yn-1-yl)-1-(2,2,2-trifluoroethyl)-1H-indol-4-amine]
CNS(=O)(=O)c1ccc(NCC#Cc2cc3c(N[C@H]4CC[C@H](N5CC6(CCOCC6)C5)CC4)cccc3n2CC(F)(F)F)c(OC)c1 [Compound 327A, 4-((3-(4-(((1R,4R)-4-(7-oxa-2-azaspiro[3.5]nonan-2-yl)cyclohexyl)amino)-1-(2,2,2-trifluoroethyl)-1H-indol-2-yl)prop-2-yn-1-yl)amino)-3-methoxy-N-methyl-benzenesulfonamide]
CCOc1cc(S(C)(=O)=O)ccc1NCC#Cc1cc2c(N[C@H]3CC[C@H](N4CC5(CCOCC5)C4)CC3)cccc2n1CC(F)(F)F [Compound 329A, N-((1R,4R)-4-(7-oxa-2-azaspiro[3.5]nonan-2-yl)cyclohexyl)-2-(3-((2-ethoxy-4-(methylsulfonyl)phenyl)amino)prop-1-yn-1-yl)-1-(2,2,2-trifluoroethyl)-1H-indol-4-amine]
COc1cc(C(N)=O)ccc1NCC#Cc1cc2c(N[C@H]3CC[C@H](N4CC5(CCOCC5)C4)CC3)cccc2n1CC(F)(F)F [Compound 331A, 3-methoxy-4-{[3-(4-{[(1R,4R)-4-{7-oxa-2-azaspiro[3.5]nonan-2-yl}cyclohexyl]amino}-1-(2,2,2-trifluoroethyl)-1H-indol-2-yl)prop-2-yn-1-yl]amino}benzamide]
COc1cc(C(N)=O)ccc1NCC#Cc1cc2c(N[C@H]3CC[C@H](N4CC5(CCCOC5)C4)CC3)cccc2n1CC(F)(F)F [Compound 333A, 3-methoxy-4-{[3-(4-{[(1R,4R)-4-{6-oxa-2-azaspiro[3.5]nonan-2-yl}cyclohexyl]amino}-1-(2,2,2-trifluoroethyl)-1H-indol-2-yl)prop-2-yn-1-yl]amino}benzamide]
CNC(=O)c1cc(OC)c(NCC#Cc2cc3c(N[C@H]4CC[C@H](N5CC6(CCOCC6)C5)CC4)cccc3n2CC(F)(F)F)cc1F [Compound 335A, 2-fluoro-5-methoxy-N-methyl-4-{[3-(4-{[(1R,4R)-4-{7-oxa-2-azaspiro[3.5]nonan-2-yl}cyclohexyl]amino}-1-(2,2,2-trifluoroethyl)-1H-indol-2-yl)prop-2-yn-1-yl]amino}benzamide]
CS(=O)(=O)c1ccc(NCC#Cc2cc3c(NC4CCC(N5CCOCC5)CC4)cccc3n2CC(F)(F)F)c(OCF)c1 [Compound 340A, 2-(3-{[2-(fluoro-methoxy)-4-methane-sulfonylphenyl]amino}prop-1-yn-1-yl)-N-[(1R,4R)-4-(morpholin-4-yl)cyclohexyl]-1-(2,2,2-trifluoroethyl)-1H-indol-4-amine]
N#CCOc1cc(S(N)(=O)=O)ccc1NCC#Cc1cc2c(N[C@H]3CC[C@H](N4CCOCC4)CC3)cccc2n1CC(F)(F)F [Compound 342A, 3-(cyanomethoxy)-4-{[3-(4-{[(1R,4R)-4-(morpholin-4-yl)cyclohexyl]amino}-1-(2,2,2-trifluoroethyl)-1H-indol-2-yl)prop-2-yn-1-yl]amino}benzene-1-sulfonamide]
NS(=O)(=O)c1ccc(NCC#Cc2cc3c(N[C@H]4CC[C@H](N5CCOCC5)CC4)cccc3n2CC(F)(F)F)c(OCF)c1 [Compound 344A, 3-(fluoromethoxy)-4-{[3-(4-{[(1R,4R)-4-(morpholin-4-yl)cyclohexyl]amino}-1-(2,2,2-trifluoroethyl)-1H-indol-2-yl)prop-2-yn-1-yl]amino}benzene-1-sulfonamide]
CCOc1cc(S(C)(=O)=O)ccc1NCC#Cc1cc2c(N[C@H]3CC[C@H](N4CCOCC4)CC3)cccc2n1CC(F)(F)F [Compound 346A, 2-(3-((2-ethoxy-4-(methylsulfonyl)phenyl)amino)prop-1-yn-1-yl)-N-((1R,4R)-4-morpholinocyclohexyl)-1-(2,2,2-trifluoroethyl)-1H-indol-4-amine]
COc1cc(S(C)(=O)=O)ccc1NCC#Cc1cc2c(N[C@H]3CC[C@H](N4CCCC(OC)C4)CC3)cccc2n1CC(F)(F)F (stereo partly drawn) [Compound 348A, 2-{3-[(4-methane-sulfonyl-2-methoxy-phenyl)amino]prop-1-yn-1-yl}-N-[(1R,4R)-4-(3-methoxypiperidin-1-yl)cyclohexyl]-1-(2,2,2-trifluoroethyl)-1H-indol-4-amine]
COc1cc(S(C)(=O)=O)ccc1NCC#Cc1cc2c(N[C@H]3CC[C@H](N4CCC(OC)CC4)CC3)cccc2n1CC(F)(F)F [Compound 350A, 2-{3-[(4-methane-sulfonyl-2-methoxy-phenyl)amino]prop-1-yn-1-yl}-N-[(1R,4R)-4-(4-methoxypiperidin-1-yl)cyclohexyl]-1-(2,2,2-trifluoroethyl)-1H-indol-4-amine]
CNC(=O)c1ccc(NCC#Cc2cc3c(N[C@H]4CC[C@H](N5CCC(OC)CC5)CC4)cccc3n2CC(F)(F)F)c(OC)c1 [Compound 352A, 3-methoxy-N-methyl-4-{[3-(4-{[(1R,4R)-4-(4-methoxypiperidin-1-yl)cyclohexyl]amino}-1-(2,2,2-trifluoroethyl)-1H-indol-2-yl)prop-2-yn-1-yl]amino}benzamide]
